What was measured:
[1] = molecular target: ATP-binding cassette sub-family C member 2 (Homo sapiens, UniProt Q92887); assay: TP_TRANSPORTER: transepithelial transport (basal to apical) in MRP2-expressing MDCKII cells; assay type: functional, cell-based; settings: dog, mdck-ii
[2] = molecular target: Multidrug resistance-associated protein 1 (Homo sapiens, UniProt P33527); assay: TP_TRANSPORTER: transepithelial transport (basal to apical) in MRP1-expressing MDCKII cells; assay type: functional, cell-based; settings: dog, mdck-ii
Multidrug resistance-associated protein 1, sequence (P33527 whole entry): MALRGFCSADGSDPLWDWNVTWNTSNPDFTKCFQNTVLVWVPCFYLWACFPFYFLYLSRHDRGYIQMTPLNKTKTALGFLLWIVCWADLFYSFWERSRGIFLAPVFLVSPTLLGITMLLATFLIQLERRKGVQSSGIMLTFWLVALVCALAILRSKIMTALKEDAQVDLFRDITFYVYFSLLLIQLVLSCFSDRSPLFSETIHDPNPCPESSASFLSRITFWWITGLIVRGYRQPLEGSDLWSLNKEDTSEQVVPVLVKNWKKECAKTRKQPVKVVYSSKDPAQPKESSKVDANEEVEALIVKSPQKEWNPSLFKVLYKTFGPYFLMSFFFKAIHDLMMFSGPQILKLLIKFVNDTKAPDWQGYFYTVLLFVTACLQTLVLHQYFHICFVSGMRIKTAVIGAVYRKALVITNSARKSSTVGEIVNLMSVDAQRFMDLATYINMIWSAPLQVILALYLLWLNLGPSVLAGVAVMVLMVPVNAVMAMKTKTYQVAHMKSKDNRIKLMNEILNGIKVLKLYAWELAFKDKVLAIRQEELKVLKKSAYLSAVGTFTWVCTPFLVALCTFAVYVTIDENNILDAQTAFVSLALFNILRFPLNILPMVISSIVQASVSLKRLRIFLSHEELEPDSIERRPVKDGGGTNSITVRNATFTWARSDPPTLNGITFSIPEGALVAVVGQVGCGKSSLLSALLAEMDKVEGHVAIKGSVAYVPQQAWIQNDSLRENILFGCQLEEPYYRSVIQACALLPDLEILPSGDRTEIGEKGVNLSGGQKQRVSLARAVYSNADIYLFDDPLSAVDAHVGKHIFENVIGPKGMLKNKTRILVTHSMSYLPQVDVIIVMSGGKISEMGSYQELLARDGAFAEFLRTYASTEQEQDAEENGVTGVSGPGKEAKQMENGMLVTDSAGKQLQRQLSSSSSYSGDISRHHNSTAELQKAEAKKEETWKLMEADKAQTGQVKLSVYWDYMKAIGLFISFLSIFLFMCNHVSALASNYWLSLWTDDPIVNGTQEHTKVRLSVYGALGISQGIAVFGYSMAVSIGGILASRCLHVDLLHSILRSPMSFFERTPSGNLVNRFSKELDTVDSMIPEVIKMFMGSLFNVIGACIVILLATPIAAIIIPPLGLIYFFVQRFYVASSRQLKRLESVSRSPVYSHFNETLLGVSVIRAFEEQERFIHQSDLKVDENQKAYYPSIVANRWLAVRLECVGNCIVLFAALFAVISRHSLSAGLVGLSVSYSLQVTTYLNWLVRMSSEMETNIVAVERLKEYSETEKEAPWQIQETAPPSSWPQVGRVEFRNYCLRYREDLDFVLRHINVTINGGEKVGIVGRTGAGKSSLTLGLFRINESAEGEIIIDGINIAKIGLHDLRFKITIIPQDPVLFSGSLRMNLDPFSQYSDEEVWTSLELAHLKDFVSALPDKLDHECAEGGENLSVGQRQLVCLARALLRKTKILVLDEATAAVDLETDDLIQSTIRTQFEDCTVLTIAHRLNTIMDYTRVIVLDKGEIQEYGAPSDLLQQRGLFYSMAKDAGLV

ATP-binding cassette sub-family C member 2, sequence (Q92887 whole entry): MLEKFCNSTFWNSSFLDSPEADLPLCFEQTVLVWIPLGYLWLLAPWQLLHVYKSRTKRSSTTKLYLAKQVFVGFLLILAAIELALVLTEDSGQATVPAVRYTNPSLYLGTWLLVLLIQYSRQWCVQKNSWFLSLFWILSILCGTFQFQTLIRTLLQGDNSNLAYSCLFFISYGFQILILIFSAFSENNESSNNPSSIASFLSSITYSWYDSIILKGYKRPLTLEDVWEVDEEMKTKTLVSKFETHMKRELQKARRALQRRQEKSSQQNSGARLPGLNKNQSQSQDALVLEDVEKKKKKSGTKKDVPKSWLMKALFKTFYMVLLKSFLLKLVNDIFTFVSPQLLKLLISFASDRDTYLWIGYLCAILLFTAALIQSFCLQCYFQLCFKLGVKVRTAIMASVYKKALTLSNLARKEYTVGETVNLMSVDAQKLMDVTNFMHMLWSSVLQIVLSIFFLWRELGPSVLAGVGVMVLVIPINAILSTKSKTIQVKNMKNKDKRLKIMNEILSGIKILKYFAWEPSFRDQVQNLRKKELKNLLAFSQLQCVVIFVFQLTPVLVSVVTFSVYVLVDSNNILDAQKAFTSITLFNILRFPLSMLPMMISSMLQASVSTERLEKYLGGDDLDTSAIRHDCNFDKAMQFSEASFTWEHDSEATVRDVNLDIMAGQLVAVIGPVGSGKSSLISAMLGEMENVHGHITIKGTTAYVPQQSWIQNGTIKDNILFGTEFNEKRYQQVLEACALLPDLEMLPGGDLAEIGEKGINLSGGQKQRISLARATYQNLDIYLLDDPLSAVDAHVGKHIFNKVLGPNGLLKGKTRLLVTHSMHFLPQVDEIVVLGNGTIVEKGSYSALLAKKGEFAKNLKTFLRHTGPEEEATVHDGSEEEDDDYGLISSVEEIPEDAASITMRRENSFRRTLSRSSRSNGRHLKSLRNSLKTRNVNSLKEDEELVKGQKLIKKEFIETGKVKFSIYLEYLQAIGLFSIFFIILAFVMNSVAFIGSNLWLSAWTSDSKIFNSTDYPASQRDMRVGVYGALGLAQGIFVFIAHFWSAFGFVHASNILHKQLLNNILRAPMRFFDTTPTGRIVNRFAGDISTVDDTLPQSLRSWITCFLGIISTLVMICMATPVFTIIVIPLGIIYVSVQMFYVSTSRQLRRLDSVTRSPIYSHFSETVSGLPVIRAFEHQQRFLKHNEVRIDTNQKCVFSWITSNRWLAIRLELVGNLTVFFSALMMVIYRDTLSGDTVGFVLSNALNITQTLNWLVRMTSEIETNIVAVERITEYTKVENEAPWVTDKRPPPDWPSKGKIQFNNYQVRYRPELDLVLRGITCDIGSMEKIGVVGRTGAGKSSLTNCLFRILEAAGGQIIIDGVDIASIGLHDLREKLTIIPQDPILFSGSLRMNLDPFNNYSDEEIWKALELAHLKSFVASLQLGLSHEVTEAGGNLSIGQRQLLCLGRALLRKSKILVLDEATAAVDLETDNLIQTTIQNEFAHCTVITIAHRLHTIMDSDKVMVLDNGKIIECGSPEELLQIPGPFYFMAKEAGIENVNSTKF

Activity [1]: substrate [+]
Activity [2]: substrate [+]
SMILES: CC(C)(C)NC(=O)[C@@H]1C[C@@H]2CCCC[C@@H]2CN1C[C@@H](O)[C@H](Cc1ccccc1)NC(=O)[C@H](CC(N)=O)NC(=O)c1ccc2ccccc2n1 [SAQUINAVIR]
